Experimental data reported in patent US10364226B2, “Pyridazinone compounds and uses thereof” (priority 2013, dated 2019).

Target: EN PA (Influenza A virus, UniProt P15659)
Test: EN PA FRET Inhibition Assay
Assay type: biochemical
Conditions: read-out: Potency

`Cc1ccc2cccc(-n3cc(O)c(=O)c(C(=O)O)n3)c2n1` [Compound 15] and `Cc1ccccc1-c1ccccc1-n1cc(O)c(=O)c(C(=O)O)n1` [Compound 38] fall in the same range of IC50: 100 to 1000 nM for the first, 100 to 1000 nM for the second.

`CCCCNS(=O)(=O)c1cccc(-n2cc(O)c(=O)c(C(=O)O)n2)c1` [Compound 22] and `COc1cccc(-n2cc(O)c(=O)c(C(=O)O)n2)c1` [Compound 5] fall in the same range of IC50: 100 to 1000 nM for the first, 100 to 1000 nM for the second.

`Cc1cc(C)cc(-c2ccccc2-n2cc(O)c(=O)c(C(=O)O)n2)c1` [Compound 301] and `Cc1ccc(C)c(-c2ccccc2-n2cc(O)c(=O)c(C(=O)O)n2)c1` [Compound 300, 1-(2′,5′-dimethylbiphenyl-2-yl)-5-hydroxy-4-oxo-1,4-dihydropyidazine-3-carboxylic acid] fall in the same range of IC50: 100 to 1000 nM for the first, 100 to 1000 nM for the second.

`CNC(=O)c1nn(-c2ccccc2-c2ccccc2OC(F)(F)F)cc(O)c1=O` [Compound 520] and `O=C(O)c1nn(-c2ccccc2-c2ccccc2OC(F)(F)F)cc(O)c1=O` [Compound 40] cannot be ordered by IC50: at least 1000 nM for the first, 100 to 1000 nM for the second.

`COc1ccc(Cl)c(-c2ccccc2-n2cc(O)c(=O)c(C(=O)O)n2)c1` [Compound 322] and `COc1cccc(-c2ccccc2-n2cc(O)c(=O)c(C(=O)O)n2)c1` [Compound 318] fall in the same range of IC50: 100 to 1000 nM for the first, 100 to 1000 nM for the second.

`CNC(=O)c1nn(-c2ccccc2N2CCc3ccccc32)cc(O)c1=O` [Compound 632] and `CNC(=O)c1nn(-c2ccccc2N2CCCc3ccccc32)cc(O)c1=O` [Compound 628] cannot be ordered by IC50: at least 1000 nM for the first, at least 1000 nM for the second.

`CNC(=O)c1nn(-c2ccccc2-c2cc(Cl)cc(OC)c2)cc(O)c1=O` [Compound 629] and `COc1cc(Cl)cc(-c2ccccc2-n2cc(O)c(=O)c(C(=O)O)n2)c1` [Compound 323] cannot be ordered by IC50: at least 1000 nM for the first, 100 to 1000 nM for the second.

`CC(C)(C)c1ccc(-c2ccccc2-n2cc(O)c(=O)c(C(=O)O)n2)cc1` [Compound 302] and `Cc1ccc(-c2ccccc2-n2cc(O)c(=O)c(C(=O)O)n2)cc1` [Compound 303] fall in the same range of IC50: 100 to 1000 nM for the first, 100 to 1000 nM for the second.

First: COc1cccc(CCn2cc(O)c(=O)c(C(=O)O)n2)c1 [Compound 414]
Second: COc1ccc(CCn2cc(O)c(=O)c(C(=O)O)n2)cc1 [Compound 415]
The IC50 of the first is lower: under 100 nM for the first, 100 to 1000 nM for the second. The first is the more potent here.

`O=C(O)c1nn(-c2ccccc2N2CCCC2)cc(O)c1=O` [Compound 200, 5-hydroxy-4-oxo-1-(2-(pyrrolidin-1-yl)phenyl)-1,4-dihydropyridazine-3-carboxylic acid] and `CN1CCN(c2ccccc2-n2cc(O)c(=O)c(C(=O)O)n2)CC1` [Compound 204] cannot be ordered by IC50: 100 to 1000 nM for the first, at least 1000 nM for the second.

`O=C(O)c1nn(-c2ccc3[nH]ncc3c2)cc(O)c1=O` [Compound 42] and `O=C(O)c1nn(-c2ccc3cn[nH]c3c2)cc(O)c1=O` [Compound 33] fall in the same range of IC50: 100 to 1000 nM for the first, 100 to 1000 nM for the second.

`O=C(NCc1ccc(F)c(Cl)c1)c1nn(CC2(c3cccnc3)CCCC2)cc(O)c1=O` [Compound 802] and `O=C(NCc1ccc(F)c(Cl)c1)c1nn(CC2(c3ccc(Cl)cc3)CCCC2)cc(O)c1=O` [Compound 803] cannot be ordered by IC50: under 100 nM for the first, under 100 nM for the second.

First: O=C(O)c1nn(-c2ccc(Oc3ccccc3)cc2)cc(O)c1=O [Compound 43]
Second: O=C(O)c1nn(-c2ccccc2-c2ccccc2Oc2ccccc2)cc(O)c1=O [Compound 311]
The IC50 of the first is higher: 100 to 1000 nM for the first, under 100 nM for the second.

First: O=C(O)c1nn(-c2ccccc2-c2ccccc2OC2CCCCC2)cc(O)c1=O [Compound 317]
Second: COc1ccccc1-c1ccccc1-n1cc(O)c(=O)c(C(=O)O)n1 [Compound 315]
The IC50 of the first is lower: under 100 nM for the first, 100 to 1000 nM for the second. The first is the more potent here.

`NC(=O)c1nn(-c2ccccc2S(=O)(=O)c2ccccc2)cc(O)c1=O` [Compound 617] and `CCOC(=O)c1nn(-c2ccccc2S(=O)(=O)c2ccccc2)cc(O)c1=O` [Compound 44] cannot be ordered by IC50: at least 1000 nM for the first, at least 1000 nM for the second.

`O=C(O)c1nn(-c2ccccc2C2CCNCC2)cc(O)c1=O` [Compound 312] and `O=C(O)c1nn(-c2ccccc2C2CCCCC2)cc(O)c1=O` [Compound 308] cannot be ordered by IC50: at least 1000 nM for the first, 100 to 1000 nM for the second.

`O=C(O)c1nn(-c2ccccc2-c2cccc3c2oc2ccccc23)cc(O)c1=O` [Compound 316] and `CCc1ccccc1-c1ccccc1-n1cc(O)c(=O)c(C(=O)O)n1` [Compound 34] fall in the same range of IC50: 100 to 1000 nM for the first, 100 to 1000 nM for the second.

`CC(C)(C)C1CCN(c2ccccc2-n2cc(O)c(=O)c(C(=O)O)n2)CC1` [Compound 208] and `CC1CCN(c2ccccc2-n2cc(O)c(=O)c(C(=O)O)n2)CC1` [Compound 202] fall in the same range of IC50: 100 to 1000 nM for the first, 100 to 1000 nM for the second.

`CS(=O)(=O)c1ccc(-n2cc(O)c(=O)c(C(=O)O)n2)cc1` [Compound 31] and `CC(C)(C)c1ccc(-n2cc(O)c(=O)c(C(=O)O)n2)cc1` [Compound 3, 1-(4-tert-butylphenyl)-5-hydroxy-4-oxo-1,4-dihydropyridazine-3-carboxylic acid] fall in the same range of IC50: 100 to 1000 nM for the first, 100 to 1000 nM for the second.

`O=C(O)c1nn(-c2ccc3c(c2)OCCO3)cc(O)c1=O` [Compound 32] and `CNC(=O)c1nn(-c2ccc3c(c2)OCCO3)cc(O)c1=O` [Compound 601, 1,4-dihydro-1-(2,3-dihydrobenzo[b][1,4]dioxin-6-yl)-5-hydroxy-N-methyl-4-oxopyridazine-3-carboxamide] cannot be ordered by IC50: 100 to 1000 nM for the first, at least 1000 nM for the second.

First: CNC(=O)c1nn(-c2ccccc2-c2ccccc2OCC(C)C)cc(O)c1=O [Compound 630]
Second: CC(C)COc1ccccc1-c1ccccc1-n1cc(O)c(=O)c(C(=O)O)n1 [Compound 325]
The IC50 of the first is higher: 100 to 1000 nM for the first, under 100 nM for the second.

`O=C(O)c1nn(C2CCc3ccccc3C2=O)cc(O)c1=O` (centres unmarked) [Compound 418] and `CC(C)c1ccccc1-n1cc(O)c(=O)c(C(=O)O)n1` [Compound 8] cannot be ordered by IC50: 100 to 1000 nM for the first, at least 1000 nM for the second.

`COc1ccc(-c2ccccc2)cc1-n1cc(O)c(=O)c(C(=O)O)n1` [Compound 13] and `N#Cc1ccc(-c2ccccc2-n2cc(O)c(=O)c(C(=O)O)n2)cc1` [Compound 36] fall in the same range of IC50: 100 to 1000 nM for the first, 100 to 1000 nM for the second.

`CNC(=O)c1nn(-c2ccccc2N2CCN(C)CC2)cc(O)c1=O` [Compound 600, 1,4-dihydro-5-hydroxy-N-methyl-1-(2-(4-methylpiperazin-1-yl)phenyl)-4-oxopyridazine-3-carboxamide] and `CCN1CCN(c2ccccc2-n2cc(O)c(=O)c(C(=O)NC)n2)CC1` [Compound 615] cannot be ordered by IC50: at least 1000 nM for the first, at least 1000 nM for the second.

`O=C(O)c1nn(-c2ccc(C(F)(F)F)cc2)cc(O)c1=O` [Compound 27] and `O=C(O)c1nn(-c2cccc(OC(F)(F)F)c2)cc(O)c1=O` [Compound 30] cannot be ordered by IC50: 100 to 1000 nM for the first, at least 1000 nM for the second.

`O=C(O)c1nn(-c2ccccc2-c2ccc3cc[nH]c3c2)cc(O)c1=O` [Compound 313] and `CNC(=O)c1nn(-c2ccccc2-c2ccc3cc[nH]c3c2)cc(O)c1=O` [Compound 521] cannot be ordered by IC50: 100 to 1000 nM for the first, at least 1000 nM for the second.

`CCOc1ccccc1-n1cc(O)c(=O)c(C(=O)O)n1` [Compound 23] and `O=C(O)c1nn(-c2ccccc2OC(F)F)cc(O)c1=O` [Compound 14] cannot be ordered by IC50: 100 to 1000 nM for the first, at least 1000 nM for the second.

Compared with `COc1ccccc1CCn1cc(O)c(=O)c(C(=O)O)n1` [Compound 413], `O=C(O)c1nn(-c2ccccc2CCO)cc(O)c1=O` [Compound 29] is higher in IC50: under 100 nM for the first, 100 to 1000 nM for the second.

`CCCCOc1ccc(-n2cc(O)c(=O)c(C(=O)O)n2)cc1` [Compound 25] and `COc1cc(OC)cc(-n2cc(O)c(=O)c(C(=O)O)n2)c1` [Compound 26] cannot be ordered by IC50: at least 1000 nM for the first, 100 to 1000 nM for the second.

`CNC(=O)c1nn(-c2ccccc2N2CCCC(C)(C)C2)cc(O)c1=O` [Compound 616] and `CC1(C)CCCN(c2ccccc2-n2cc(O)c(=O)c(C(=O)O)n2)C1` [Compound 209] cannot be ordered by IC50: at least 1000 nM for the first, 100 to 1000 nM for the second.

`Cc1cc(F)ccc1-c1ccccc1-n1cc(O)c(=O)c(C(=O)O)n1` [Compound 305] and `CC(C)c1ccccc1-c1ccccc1-n1cc(O)c(=O)c(C(=O)O)n1` [Compound 39] fall in the same range of IC50: 100 to 1000 nM for the first, 100 to 1000 nM for the second.

`CCN1CCN(c2ccccc2-n2cc(O)c(=O)c(C(=O)O)n2)CC1` [Compound 205] and `CC(C)(C)OC(=O)N1CCC(c2ccccc2-n2cc(O)c(=O)c(C(=O)O)n2)CC1` [Compound 304] cannot be ordered by IC50: at least 1000 nM for the first, at least 1000 nM for the second.

First: CNC(=O)c1nn(CC2(c3cccc(Oc4ccccc4)c3)CCCC2)cc(O)c1=O [Compound 701]
Second: CNC(=O)c1nn(CC2(c3ccccc3)CCCC2)cc(O)c1=O [Compound 627]
The IC50 of the first is lower: under 100 nM for the first, 100 to 1000 nM for the second.

`O=C(NCc1ccc(F)c(Cl)c1)c1nn(CC2(c3ccc(F)c(F)c3)CCCC2)cc(O)c1=O` [Compound 805] and `O=C(NCc1ccccc1)c1nn(CC2(c3ccc(Cl)cc3)CCCC2)cc(O)c1=O` [Compound 804] cannot be ordered by IC50: under 100 nM for the first, under 100 nM for the second.

First: O=C(NC1CC1)c1nn(CC2(c3cc(C(F)(F)F)cc(C(F)(F)F)c3)CCCC2)cc(O)c1=O [Compound 508]
Second: O=C(O)c1nn(CC2(c3cc(C(F)(F)F)cc(C(F)(F)F)c3)CCCC2)cc(O)c1=O [Compound 419]
The IC50 of the first is higher: 100 to 1000 nM for the first, under 100 nM for the second. The second is the more potent here.

`Cc1cn(C2(Cn3cc(O)c(=O)c(C(=O)O)n3)CCCC2)c2ncccc12` [Compound 425] and `Cc1cccc(C)c1-n1cc(O)c(=O)c(C(=O)O)n1` [Compound 12] fall in the same range of IC50: 100 to 1000 nM for the first, 100 to 1000 nM for the second.

`CC(C)Cc1ccc(-c2ccccc2-n2cc(O)c(=O)c(C(=O)O)n2)cc1` [Compound 37] and `O=C(O)c1nn(-c2ccccc2-c2ccc(C(F)(F)F)cc2)cc(O)c1=O` [Compound 307] fall in the same range of IC50: 100 to 1000 nM for the first, 100 to 1000 nM for the second.

`CCOC(=O)c1nn(CC2(c3cc(C(F)(F)F)cc(C(F)(F)F)c3)CCCC2)cc(O)c1=O` [Compound 420] and `CNC(=O)c1nn(CCc2cccc(C(F)(F)F)c2)cc(O)c1=O` [Compound 608] cannot be ordered by IC50: 100 to 1000 nM for the first, at least 1000 nM for the second.

`CCOc1cc(C)cc(-c2ccccc2-n2cc(O)c(=O)c(C(=O)NC)n2)c1` [Compound 633] and `CNC(=O)c1nn(-c2ccccc2-c2cc(C)ccc2OC(C)C)cc(O)c1=O` [Compound 522] cannot be ordered by IC50: at least 1000 nM for the first, 100 to 1000 nM for the second.

`Cn1ccc2ccc(-c3ccccc3-n3cc(O)c(=O)c(C(=O)O)n3)cc21` [Compound 324] and `CNC(=O)c1nn(-c2ccccc2-c2ccc3ccn(C)c3c2)cc(O)c1=O` [Compound 618] cannot be ordered by IC50: 100 to 1000 nM for the first, at least 1000 nM for the second.

`CNC(=O)c1nn(-c2ccccc2-c2ccc3c(ccn3C)c2)cc(O)c1=O` [Compound 620] and `CC(C)Oc1ccccc1-c1ccccc1-n1cc(O)c(=O)c(C(=O)O)n1` [Compound 310] cannot be ordered by IC50: at least 1000 nM for the first, 100 to 1000 nM for the second.

`O=C(O)c1nn(-c2cc(C(F)(F)F)ccc2N2CCCC2)cc(O)c1=O` [Compound 201] was tested, and the IC50 was 100 to 1000 nM.
